Measured values reported in PubChem BioAssay (NCI).
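Five concentrations, 48 hours, 96-well plates. GI50 is the concentration that inhibits growth by half. TGI: concentration producing complete growth inhibition.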

Tests used:
Test in all cases: NCI tumour cell line growth inhibition, 48 h
M14 melanoma = system: M14 melanoma
KM12 colon = system: KM12 colon
PC-3 prostate = system: PC-3 prostate
NCI-H522 lung = system: NCI-H522 lung
U251 CNS = system: U251 CNS
UACC-62 melanoma = system: UACC-62 melanoma
NCI/ADR-RES ovarian = system: NCI/ADR-RES ovarian
EKVX NSCLC = system: EKVX NSCLC
MALME-3M melanoma = system: MALME-3M melanoma
RPMI-8226 leukemia = system: RPMI-8226 leukemia
OVCAR-8 ovarian = system: OVCAR-8 ovarian
SN12C renal = system: SN12C renal
SR leukemia = system: SR leukemia
COLO 205 colon = system: COLO 205 colon
UACC-257 melanoma = system: UACC-257 melanoma
SF-539 CNS = system: SF-539 CNS
MDA-MB-435 = system: MDA-MB-435
SW-620 colon = system: SW-620 colon
A549 NSCLC = system: A549 NSCLC
SF-268 CNS = system: SF-268 CNS
K-562 leukemia = system: K-562 leukemia
HCC-2998 colon = system: HCC-2998 colon
SK-MEL-2 melanoma = system: SK-MEL-2 melanoma
OVCAR-3 ovarian = system: OVCAR-3 ovarian
T-47D breast = system: T-47D breast
OVCAR-5 ovarian = system: OVCAR-5 ovarian
CCRF-CEM leukemia = system: CCRF-CEM leukemia
SK-MEL-5 melanoma = system: SK-MEL-5 melanoma
SF-295 CNS = system: SF-295 CNS
HOP-92 NSCLC = system: HOP-92 NSCLC
HT29 colon = system: HT29 colon
SK-MEL-28 melanoma = system: SK-MEL-28 melanoma
HOP-62 NSCLC = system: HOP-62 NSCLC
TK-10 renal = system: TK-10 renal
HCT-116 colon = system: HCT-116 colon
786-0 renal = system: 786-0 renal
IGROV1 ovarian = system: IGROV1 ovarian
MOLT-4 leukemia = system: MOLT-4 leukemia
SK-OV-3 ovarian = system: SK-OV-3 ovarian
NCI-H226 lung = system: NCI-H226 lung
SNB-75 CNS = system: SNB-75 CNS
DU-145 prostate = system: DU-145 prostate
NCI-H460 lung = system: NCI-H460 lung
NCI-H23 lung = system: NCI-H23 lung
HL-60(TB) leukemia = system: HL-60(TB) leukemia
MCF7 breast = system: MCF7 breast
A498 renal = system: A498 renal
HS 578T breast = system: HS 578T breast
BT-549 breast = system: BT-549 breast
UO-31 renal = system: UO-31 renal
RXF 393 renal = system: RXF 393 renal
HCT-15 colon = system: HCT-15 colon
ACHN renal = system: ACHN renal
LOX IMVI melanoma = system: LOX IMVI melanoma
SNB-19 CNS = system: SNB-19 CNS
MDA-MB-231 breast = system: MDA-MB-231 breast
CAKI-1 renal = system: CAKI-1 renal
OVCAR-4 ovarian = system: OVCAR-4 ovarian

## O=C(NCCc1ccccc1)C(c1csc2ccccc12)N(C(=O)CCl)c1ccc(-c2cnco2)cc1 (centres undefined)
M14 melanoma
  GI50: 1380 nM
  TGI: 2830 nM
KM12 colon
  GI50: 291 nM
  TGI: 898 nM
PC-3 prostate
  GI50: 511 nM
  TGI: 1900 nM
NCI-H522 lung
  GI50: 13.4 nM
  TGI: 29.5 nM
U251 CNS
  GI50: 163 nM
  TGI: 644 nM
UACC-62 melanoma
  GI50: 1300 nM
  TGI: 2850 nM
NCI/ADR-RES ovarian
  GI50: 114 nM
  TGI: 1170 nM
EKVX NSCLC
  GI50: 543 nM
  TGI: 2300 nM
MALME-3M melanoma
  GI50: 146 nM
  TGI: 308 nM
RPMI-8226 leukemia
  GI50: 171 nM
  TGI: 474 nM
OVCAR-8 ovarian
  GI50: 169 nM
  TGI: 1280 nM
SN12C renal
  GI50: 412 nM
  TGI: 2030 nM
SR leukemia
  GI50: 26.8 nM
  TGI: 107 nM
COLO 205 colon
  GI50: 1560 nM
  TGI: 3280 nM
UACC-257 melanoma
  GI50: 1630 nM
  TGI: 3170 nM
SF-539 CNS
  GI50: 126 nM
  TGI: 257 nM
MDA-MB-435
  GI50: 1540 nM
  TGI: 3180 nM
SW-620 colon
  GI50: 391 nM
  TGI: 1290 nM
A549 NSCLC
  GI50: 393 nM
  TGI: 1640 nM
SF-268 CNS
  GI50: 362 nM
  TGI: 958 nM
K-562 leukemia
  GI50: 509 nM
  TGI: > 20700 nM
HCC-2998 colon
  GI50: 1690 nM
  TGI: 3220 nM
SK-MEL-2 melanoma
  GI50: 1640 nM
  TGI: 3120 nM
OVCAR-3 ovarian
  GI50: 156 nM
  TGI: 828 nM
T-47D breast
  GI50: 1020 nM
  TGI: 2890 nM
OVCAR-5 ovarian
  GI50: 682 nM
  TGI: 2070 nM
CCRF-CEM leukemia
  GI50: 22.9 nM
  TGI: 59.4 nM
SK-MEL-5 melanoma
  GI50: 1620 nM
  TGI: 3010 nM
SF-295 CNS
  GI50: 156 nM
  TGI: 302 nM
HOP-92 NSCLC
  GI50: 174 nM
  TGI: 443 nM
HT29 colon
  GI50: 257 nM
  TGI: 1060 nM
SK-MEL-28 melanoma
  GI50: 1690 nM
  TGI: 3120 nM
HOP-62 NSCLC
  GI50: 347 nM
  TGI: 1070 nM
TK-10 renal
  GI50: 1750 nM
  TGI: 3210 nM
HCT-116 colon
  GI50: 889 nM
  TGI: 2370 nM
786-0 renal
  GI50: 19.7 nM
  TGI: 38 nM
IGROV1 ovarian
  GI50: 161 nM
  TGI: 331 nM
MOLT-4 leukemia
  GI50: 209 nM
  TGI: 678 nM
SK-OV-3 ovarian
  GI50: 1250 nM
  TGI: 2690 nM
NCI-H226 lung
  GI50: 1070 nM
  TGI: 3430 nM
SNB-75 CNS
  GI50: 502 nM
  TGI: 990 nM
DU-145 prostate
  GI50: 461 nM
  TGI: 2300 nM
NCI-H460 lung
  GI50: 631 nM
NCI-H23 lung
  GI50: 20.9 nM
  TGI: 50.8 nM
HL-60(TB) leukemia
  GI50: 762 nM
  TGI: 2800 nM
MCF7 breast
  GI50: 1430 nM
  TGI: 3260 nM
A498 renal
  GI50: 620 nM
  TGI: 1480 nM
HS 578T breast
  GI50: 1440 nM
  TGI: 7200 nM
BT-549 breast
  GI50: 228 nM
  TGI: 574 nM
UO-31 renal
  GI50: 17.3 nM
  TGI: 35.4 nM
RXF 393 renal
  GI50: 145 nM
  TGI: 587 nM
HCT-15 colon
  GI50: 596 nM
  TGI: 1840 nM
ACHN renal
  GI50: 139 nM
  TGI: 537 nM
LOX IMVI melanoma
  GI50: < 10 nM
SNB-19 CNS
  GI50: 1700 nM
  TGI: 3160 nM
MDA-MB-231 breast
  GI50: 226 nM
  TGI: 1360 nM
CAKI-1 renal
  GI50: 96 nM
  TGI: 487 nM
OVCAR-4 ovarian
  GI50: 1700 nM
  TGI: 5140 nM
